# Measured values as given in patent US20180168208A1 (priority 2014, published 2018).
# Counter-ions that a name gives are not always drawn. Like-named read-outs stand apart in the source and are kept apart here.
# Tests used:
# T1R1/T1R3 receptor [1] = target: T1, T1R1/T1R3 receptor (Felis catus, UniProt E3UMS2); experiment: Example 8: agonist screening of transmembrane compounds on T1R1/T1R3 in HEK293 cells; assay type: cell-based, cat; details: transmembrane compound alone
# Experimental: (§1) HEK293 cells that stably express T1R3 and inducibly express T1R1 were exposed to a transmembrane compound. Activation of the T1R1/T1R3 receptor was detected by a change in intracellular calcium levels using a calcium sensitive fluorescent dye and/or a luminescent reporter system. […] A FLIPR® Tetra or a FlexStation® 3 was used for data capture.
# Each transmembrane compound was tested at concentrations of 0.01 mM, 0.1 mM, and 1 mM. […] To generate the dose response curves, the transmembrane compound was tested at concentrations of between 0.0001 mM and 1.0 mM in the presence of GMP and Ala.
# Target sequence in this assay (E3UMS2 entry or part of it, one chain of several): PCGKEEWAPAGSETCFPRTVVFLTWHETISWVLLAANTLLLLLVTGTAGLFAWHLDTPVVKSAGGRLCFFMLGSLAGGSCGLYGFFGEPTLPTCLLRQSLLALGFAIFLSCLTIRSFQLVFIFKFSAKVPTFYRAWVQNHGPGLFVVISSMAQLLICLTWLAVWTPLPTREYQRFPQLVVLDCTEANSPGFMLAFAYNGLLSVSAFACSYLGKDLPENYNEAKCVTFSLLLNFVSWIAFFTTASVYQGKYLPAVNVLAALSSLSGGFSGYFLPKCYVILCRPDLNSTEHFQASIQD
# T1R1/T1R3 receptor [2] = target: T1, T1R1/T1R3 receptor; experiment: Example 8: PAM screening of transmembrane compounds with GMP and Ala on T1R1/T1R3 in HEK293 cells; assay type: cell-based, cat; details: in the presence of GMP and Alanine
# Text: as §1, with “to” for “to a”, “compound alone or in combination with Ala and GMP to activate the umami receptor.” for “compound.”
# Target sequence in this assay (E3UMS2 entry or part of it, one chain of several): as above
# Dose response curves were generated for each transmembrane compound at concentrations of 0 (buffer only), 0.01, 0.1 and 1 mM, wherein each of the three concentrations of transmembrane compound was tested in combination with 0.03 mM GMP+100 mM Ala (T1); 0.6 mM GMP+10 mM Ala (T2); 0.1 mM GMP+60 mM Ala (T3) and 0.3 mM GMP+60 mM Ala (T4). The T4 mixture was also tested in a 2-fold dilution series (the T4(×) Concentration). In these experiments, the first test concentration was 2× (2 times) the T4 concentration. The subsequent test concentrations were 2-fold dilutions from that (1×, 0.5×etc.). This dilution series was tested with or without the addition of the test compound at a constant 0.3 mM concentration.
# Activation of the umami receptor was also determined in the presence of 1 mM GMP+100 mM Ala to generate a “maximum” umami receptor activation level.
# T1R1/T1R3 receptor [3] = target: T1, T1R1/T1R3 receptor; experiment: Example 6: activation of T1R1/T1R3 by transmembrane compounds, conducted as in Example 5; assay type: cell-based
# Text: HEK293 cells that stably express T1R3 and inducibly express T1R1 were exposed to transmembrane compounds alone or in combination with one or more amino acids and/or one or more nucleotides to activate the umami receptor. Activation of the T1R1/T1R3 receptor was detected by a change in intracellular calcium levels using a calcium sensitive fluorescent dye. Cells that express T1R3 but not T1R1 were used as a control. A FLIPR® Tetra or a FlexStation® 3 was used for data capture.
# In each experiment, serial dilutions of up to 10 mM of the transmembrane compound were added to the T1R1/T1R3-expressing cells.
# T1R1/T1R3 receptor [4] = target: T1, T1R1/T1R3 receptor; experiment: cell-based; details: for Max resp % of Ala, +IMP (0.2 mM): relative to alanine; for Thres (mM), +IMP (0.2 mM): threshold concentration in the presence of 0.2 mM IMP
# Procedure, shortened: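 HEK293 cells stably expressing T1R3 with inducible T1R1 were given transmembrane compounds in serial dilutions up to 10 mM, alone or with amino acids and/or nucleotides. Receptor activation was read as an intracellular calcium change with a calcium-sensitive fluorescent dye; T1R3-only cells served as control.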
# cat T1R1/T1R3 receptor [5] = target: T2, cat T1R1/T1R3 receptor (Felis catus, UniProt A0ABI7Z2I4); experiment: cell-based
# T2 sequence (A0ABI7Z2I4 171-420): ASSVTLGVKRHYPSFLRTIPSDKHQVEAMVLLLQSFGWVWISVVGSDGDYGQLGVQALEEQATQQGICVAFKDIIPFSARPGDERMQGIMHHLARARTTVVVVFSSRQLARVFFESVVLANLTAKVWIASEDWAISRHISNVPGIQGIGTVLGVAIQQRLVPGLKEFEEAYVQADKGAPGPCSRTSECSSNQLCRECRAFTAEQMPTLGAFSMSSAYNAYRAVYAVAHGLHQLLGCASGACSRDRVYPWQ
# T2 sequence (Q49KI5 25-865 E206Q/N523D/F654L partner): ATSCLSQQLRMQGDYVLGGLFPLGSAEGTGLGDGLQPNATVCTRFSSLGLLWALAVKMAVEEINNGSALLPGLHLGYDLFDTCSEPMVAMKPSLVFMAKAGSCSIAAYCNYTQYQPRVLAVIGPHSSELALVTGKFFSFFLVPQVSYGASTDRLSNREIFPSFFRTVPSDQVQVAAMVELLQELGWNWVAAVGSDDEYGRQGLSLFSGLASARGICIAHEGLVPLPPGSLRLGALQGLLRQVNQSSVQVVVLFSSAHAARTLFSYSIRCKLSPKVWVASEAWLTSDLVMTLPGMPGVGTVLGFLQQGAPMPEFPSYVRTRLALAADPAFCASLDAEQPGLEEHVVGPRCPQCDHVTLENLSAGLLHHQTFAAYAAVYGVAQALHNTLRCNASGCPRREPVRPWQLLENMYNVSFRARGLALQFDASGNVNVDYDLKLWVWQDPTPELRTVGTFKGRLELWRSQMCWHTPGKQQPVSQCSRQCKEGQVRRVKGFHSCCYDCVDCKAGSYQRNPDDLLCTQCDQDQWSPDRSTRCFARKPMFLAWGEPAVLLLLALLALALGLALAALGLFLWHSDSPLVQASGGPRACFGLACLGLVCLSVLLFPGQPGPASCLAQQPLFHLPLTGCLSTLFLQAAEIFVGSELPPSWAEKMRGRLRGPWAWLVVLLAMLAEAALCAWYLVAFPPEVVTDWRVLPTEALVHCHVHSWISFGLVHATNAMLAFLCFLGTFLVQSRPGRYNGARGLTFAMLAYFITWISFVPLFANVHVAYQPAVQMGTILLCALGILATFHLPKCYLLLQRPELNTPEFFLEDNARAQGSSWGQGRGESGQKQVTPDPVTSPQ
# Experimental: […] Activation of the T1R1/T1R3 receptor was detected by a change in intracellular calcium levels using a calcium sensitive fluorescent dye. Cells that express T1R3 but not T1R1 were used as a control. A FLIPR® Tetra or a FlexStation® 3 was used for data capture.
# In each experiment, serial dilutions of up to 0.1 mM, 1 mM or 10 mM of the nucleotide derivative were added to the T1R1/T1R3-expressing cells.
# cat T1R1/T1R3 receptor [6] = target: T2, cat T1R1/T1R3 receptor; experiment: cell-based; remark: listed apart in the source
# Procedure, shortened: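 HEK293 cells stably expressing T1R3 with inducible T1R1, treated with nucleotide derivatives alone or combined with amino acids and/or nucleotides. Activation read as intracellular calcium change by calcium-sensitive fluorescent dye and/or luminescent reporter. Cells expressing T1R3 without T1R1 served as control.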
# [7] = with 20 mM alanine, read-out: EC50- with Ala
structure (smiles),measurement,setting,value
COC(=O)[C@@H](Cc1ccccc1)NCc1ccccc1.Cl [N-Benzyl-D-Phenylalanine methyl ester hydrochloride],agonist profile assessment (agonist activity),T1R1/T1R3 receptor [1],agonist
same,PAM profile assessment (PAM activity),T1R1/T1R3 receptor [2],PAM activity
COC(=O)[C@H](Cc1ccccc1)NCc1ccccc1 [N-benzyl-L-phenylalanine methyl ester HCl],EC50,"T1R1/T1R3 receptor [3]; T1R1/T1R3 EC50 +20 mM L-alanine, +20 mM L-alanine",50 ± 1 µM
same,EC50,"T1R1/T1R3 receptor [3]; T1R1/T1R3 EC50 alone in buffer, alone in buffer",30 ± 2 µM
COC(=O)[C@H](Cc1ccccc1)NCc1ccccc1.Cl [N-benzyl-L-phenylalanine methyl ester hydrochloride],agonist profile assessment (agonist activity),T1R1/T1R3 receptor [1],agonist
same,PAM profile assessment (PAM activity),T1R1/T1R3 receptor [2],PAM activity
same,"Max resp % of IMP, +Alanine (20 mM)",T1R1/T1R3 receptor [4],273.4%
same,"Thres (mM), +Alanine (20 mM)",T1R1/T1R3 receptor [4],0.01 mM
same,"Max resp ΔF/F, +IMP (0.2 mM)",T1R1/T1R3 receptor [4]; in the presence of 0.2 mM IMP,2.2500 ΔF/F
same,"Max resp % of Ala, +IMP (0.2 mM)",T1R1/T1R3 receptor [4]; in the presence of 0.2 mM IMP,289.4%
same,"Thres (mM), +IMP (0.2 mM)",T1R1/T1R3 receptor [4],0.003 mM
"Nc1ncnc2c1ncn2C1OC(COP(O)(O)=S)C(O)C1O (stereo not shown) [adenosine 5′-O-thiomonophosphate, Adenosine 5′-O-thiomonophosphate]",EC50,"cat T1R1/T1R3 receptor [5]; test compound alone (in buffer), read-out: EC50- alone",> 1000 µM
same,EC50,cat T1R1/T1R3 receptor [5]; [7],60 µM
C[C@H](N)C(=O)O [alanine],EC50,cat T1R1/T1R3 receptor [6],13600 ± 4300 µM
same,EC50,cat T1R1/T1R3 receptor [5]; EC50- alone,13600 µM
same,EC50,T1R1/T1R3 receptor [4]; EC50 (effect with 0.2 mM IMP),12.3 ± 1.3 mM
same,EC50,"T1R1/T1R3 receptor [4]; EC50 (mM), +IMP (0.2 mM)",12.3 mM
same,"Max resp % of Ala, +IMP (0.2 mM)",T1R1/T1R3 receptor [4]; in the presence of 0.2 mM IMP,100.0%
same,"Thres (mM), +IMP (0.2 mM)",T1R1/T1R3 receptor [4],3.0 mM
O=c1nc[nH]c2c1ncn2C1O[C@H](COP(=O)(O)OP(=O)(O)OP(=O)(O)O)[C@@H](O)[C@H]1O (stereo partly shown) [inosine triphosphate (ITP) trisodium salt],Activity,cat T1R1/T1R3 receptor [6],active
same,EC50,cat T1R1/T1R3 receptor [6],80 µM
same,Max resp. (ΔF/F),cat T1R1/T1R3 receptor [6],0.3 ΔF/F
same,Max. resp. % of IMP,cat T1R1/T1R3 receptor [6],25.1 % of IMP
same,Threshold,cat T1R1/T1R3 receptor [6],0.02 mM
same,EC50,cat T1R1/T1R3 receptor [5]; [7],80 ± 10 µM
